Data reported in PubChem BioAssay AID248 (DTP/NCI, 2004).
Several values for one entry are separate records, joined by “and”; a condition that tells them apart may be missing. Equal values may be shown once. Toxic doses and inconclusive results are not listed. No stated cut-off is given here; in the data, active means T/C of 150% or more; inactive means T/C below 125%.

Tested on: L1210 leukemia ip in BDF1 mice, survival T/C
Experiment: NCI In Vivo Anticancer Drug Screen. Data for tumor model L1210 Leukemia (intraperitoneal) in B6D2F1 (BDF1) mice
Details: endpoint: mean survival time, higher = longer survival
How it was run: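 Read-out is survival time, reported as the treated-group measurement over the vehicle-control measurement.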

[1] = dose: 50.0 mg/kg/injection, schedule: Q01DX001 (ip), vehicle: other
[2] = dose: 100.0 mg/kg/injection, schedule: Q01DX001 (ip), vehicle: saline with Tween-80
[3] = dose: 200.0 mg/kg/injection, schedule: Q01DX001 (ip), vehicle: saline with Tween-80
[4] = dose: 400.0 mg/kg/injection, schedule: Q01DX001 (ip), vehicle: saline with Tween-80
[5] = dose: 100.0 mg/kg/injection, schedule: Q01DX009 (ip), vehicle: Klucel (hydroxypropylcellulose) (HPC)
[6] = dose: 200.0 mg/kg/injection, schedule: Q04DX002 (ip), vehicle: Klucel (hydroxypropylcellulose) (HPC)
[7] = dose: 400.0 mg/kg/injection, schedule: Q04DX002 (ip), vehicle: Klucel (hydroxypropylcellulose) (HPC)
[8] = dose: 100.0 mg/kg/injection, schedule: Q01DX001 (ip), vehicle: other
[9] = dose: 200.0 mg/kg/injection, schedule: Q01DX001 (ip), vehicle: other
[10] = dose: 100.0 mg/kg/injection, schedule: Q01DX001 (ip), vehicle: carboxymethylcellulose (CMC)
[11] = dose: 200.0 mg/kg/injection, schedule: Q01DX001 (ip), vehicle: carboxymethylcellulose (CMC)
[12] = dose: 400.0 mg/kg/injection, schedule: Q01DX001 (ip), vehicle: carboxymethylcellulose (CMC)
[13] = dose: 200.0 mg/kg/injection, schedule: Q01DX009 (ip), vehicle: Klucel (hydroxypropylcellulose) (HPC)
[14] = dose: 400.0 mg/kg/injection, schedule: Q01DX009 (ip), vehicle: Klucel (hydroxypropylcellulose) (HPC)
[15] = dose: 100.0 mg/kg/injection, schedule: Q04DX002 (ip), vehicle: Klucel (hydroxypropylcellulose) (HPC)

Measured: T/C

O=NN(CCF)C(=O)NC1CCC(NC(=O)N(CCF)N=O)CC1 (centres undefined)
active: dose: 16.0 mg/kg/injection, schedule: Q01DX001 (ip), vehicle: carboxymethylcellulose (CMC) 151 % of control | dose: 30.0 mg/kg/injection, schedule: Q01DX001 (ip), vehicle: other 190 % of control | dose: 31.0 mg/kg/injection, schedule: Q01DX001 (ip), vehicle: carboxymethylcellulose (CMC) 176 % of control | [1] 220 % of control | dose: 60.0 mg/kg/injection, schedule: Q01DX001 (ip), vehicle: other 294 % of control | dose: 62.0 mg/kg/injection, schedule: Q01DX001 (ip), vehicle: carboxymethylcellulose (CMC) 336 % of control | dose: 80.0 mg/kg/injection, schedule: Q01DX001 (ip), vehicle: other 300 % of control | dose: 120.0 mg/kg/injection, schedule: Q01DX001 (ip), vehicle: other 315 % of control and 340 % of control | dose: 125.0 mg/kg/injection, schedule: Q01DX001 (ip), vehicle: carboxymethylcellulose (CMC) 357 % of control | dose: 180.0 mg/kg/injection, schedule: Q01DX001 (ip), vehicle: other 340 % of control | dose: 240.0 mg/kg/injection, schedule: Q01DX001 (ip), vehicle: other 298 % of control | dose: 250.0 mg/kg/injection, schedule: Q01DX001 (ip), vehicle: carboxymethylcellulose (CMC) 357 % of control | dose: 375.0 mg/kg/injection, schedule: Q01DX001 (ip), vehicle: carboxymethylcellulose (CMC) 276 % of control | dose: 500.0 mg/kg/injection, schedule: Q01DX001 (ip), vehicle: carboxymethylcellulose (CMC) 271 % of control | dose: 750.0 mg/kg/injection, schedule: Q01DX001 (ip), vehicle: carboxymethylcellulose (CMC) 175 % of control | dose: 1000.0 mg/kg/injection, schedule: Q01DX001 (ip), vehicle: carboxymethylcellulose (CMC) 175 % of control

c1ccc(C2SCc3ccc(cc3)Sc3ccc(cc3)CS2)cc1
inactive: [2] 91 % of control | [3] 88 % of control | [4] 91 % of control

CCCCCCCCCCCCCCCCCCNC(=O)Nc1nccs1
inactive: [5] 96 % of control | dose: 150.0 mg/kg/injection, schedule: Q01DX009 (ip), vehicle: Klucel (hydroxypropylcellulose) (HPC) 86 % of control | [6] 94 % of control | dose: 225.0 mg/kg/injection, schedule: Q01DX009 (ip), vehicle: Klucel (hydroxypropylcellulose) (HPC) 91 % of control | dose: 335.0 mg/kg/injection, schedule: Q01DX009 (ip), vehicle: Klucel (hydroxypropylcellulose) (HPC) 96 % of control | [7] 87 % of control

Cc1ncc(CO)n1Cc1ccccc1
inactive: dose: 100.0 mg/kg/injection, schedule: Q01DX001 (ip), vehicle: Klucel (hydroxypropylcellulose) (HPC) 104 % of control | dose: 200.0 mg/kg/injection, schedule: Q01DX001 (ip), vehicle: Klucel (hydroxypropylcellulose) (HPC) 104 % of control | dose: 400.0 mg/kg/injection, schedule: Q01DX001 (ip), vehicle: Klucel (hydroxypropylcellulose) (HPC) 114 % of control

Cc1c(C)c2cc(Br)ccc2[nH]c1=O
inactive: [8] 103 % of control | [9] 97 % of control | dose: 400.0 mg/kg/injection, schedule: Q01DX001 (ip), vehicle: other 97 % of control

Cc1ccc(S(=O)(=O)OC2CCC(N3C(=O)c4ccccc4C3=O)CC2)cc1 (centres undefined)
inactive: [2] 100 % of control | [3] 102 % of control | [4] 98 % of control

Cn1c(=O)c2c(nc(C3CC3)n2C)n(C)c1=O
inactive: [1] 112 % of control | [8] 95 % of control | [9] 95 % of control

CC(Br)c1ccc2c(c1)Cc1ccccc1-2 (centres undefined)
inactive: [10] 97 % of control | [11] 89 % of control | [12] 97 % of control

CCCCN(CCCC)CCCCCN
inactive: dose: 25.0 mg/kg/injection, schedule: Q01DX Z (ip), vehicle: carboxymethylcellulose (CMC) 106 % of control | dose: 50.0 mg/kg/injection, schedule: Q01DX Z (ip), vehicle: carboxymethylcellulose (CMC) 86 % of control | dose: 100.0 mg/kg/injection, schedule: Q01DX Z (ip), vehicle: carboxymethylcellulose (CMC) 90 % of control

CC(C)CCCc1c[nH]c(=O)[nH]c1=O
inactive: [5] 105 % of control | dose: 100.0 mg/kg/injection, schedule: Q04DX003 (ip), vehicle: other 103 % of control | [13] 97 % of control | dose: 200.0 mg/kg/injection, schedule: Q04DX003 (ip), vehicle: other 101 % of control | [14] 97 % of control | dose: 400.0 mg/kg/injection, schedule: Q04DX003 (ip), vehicle: other 117 % of control

CCOC(=O)N(C(=S)Nc1ccccc1)c1nc(C)cs1
inactive: dose: 100.0 mg/kg/injection, schedule: Q01DX001 (ip), vehicle: gum acacia 100 % of control | dose: 200.0 mg/kg/injection, schedule: Q01DX001 (ip), vehicle: gum acacia 111 % of control | dose: 400.0 mg/kg/injection, schedule: Q01DX001 (ip), vehicle: gum acacia 97 % of control

CCC1c2ccc3cc(OC)ccc3c2C(=O)C1CC(=O)O (centres undefined)
inactive: dose: 100.0 mg/kg/injection, schedule: Q01DX001 (ip), vehicle: saline 93 % of control | dose: 200.0 mg/kg/injection, schedule: Q01DX001 (ip), vehicle: saline 107 % of control

CCOC(=O)C(Oc1ccc([N+](=O)[O-])cc1)C(=O)OCC
inactive: [5] 98 % of control | [13] 98 % of control | [14] 96 % of control

COc1cc2c(cc1O)-c1cc3ccc(OC)c(OC)c3c[n+]1CC2
inactive: [15] 103 % of control

CC(C)(C)c1cc(/C=N/NC(=O)COCC(=O)N/N=C/c2cc(C(C)(C)C)c(O)c(C(C)(C)C)c2)cc(C(C)(C)C)c1O
inactive: [5] 95 % of control | [13] 103 % of control | [14] 92 % of control

O=C(O)c1ccc(Br)cc1F
inactive: [10] 89 % of control | dose: 100.0 mg/kg/injection, schedule: Q01DX009 (ip), vehicle: carboxymethylcellulose (CMC) 109 % of control and 92 % of control | [15] 97 % of control | dose: 100.0 mg/kg/injection, schedule: Q04DX002 (ip), vehicle: carboxymethylcellulose (CMC) 104 % of control and 107 % of control | dose: 100.0 mg/kg/injection, schedule: Q04DX003 (ip), vehicle: carboxymethylcellulose (CMC) 97 % of control | [11] 99 % of control | dose: 200.0 mg/kg/injection, schedule: Q01DX009 (ip), vehicle: carboxymethylcellulose (CMC) 116 % of control and 89 % of control | [6] 97 % of control | dose: 200.0 mg/kg/injection, schedule: Q04DX002 (ip), vehicle: carboxymethylcellulose (CMC) 102 % of control and 91 % of control | dose: 200.0 mg/kg/injection, schedule: Q04DX003 (ip), vehicle: carboxymethylcellulose (CMC) 99 % of control | [12] 89 % of control | dose: 400.0 mg/kg/injection, schedule: Q01DX009 (ip), vehicle: carboxymethylcellulose (CMC) 95 % of control and 92 % of control | [7] 97 % of control | dose: 400.0 mg/kg/injection, schedule: Q04DX002 (ip), vehicle: carboxymethylcellulose (CMC) 99 % of control and 100 % of control | dose: 400.0 mg/kg/injection, schedule: Q04DX003 (ip), vehicle: carboxymethylcellulose (CMC) 105 % of control

Nc1ccc(S(=O)(=O)c2cc(CC(N)C(=O)O)cc(O)c2O)cc1 (centres undefined)
inactive: dose: 87.5 mg/kg/injection, schedule: Q01DX009 (ip), vehicle: saline 98 % of control | dose: 175.0 mg/kg/injection, schedule: Q01DX009 (ip), vehicle: saline 96 % of control | dose: 350.0 mg/kg/injection, schedule: Q01DX009 (ip), vehicle: saline 86 % of control

C=C1CC(C)(c2ccc(CCCC(=O)OCC)cc2)OC1=O (centres undefined)
inactive: dose: 50.0 mg/kg/injection, schedule: Q01DX009 (ip), vehicle: saline with Tween-80 102 % of control | dose: 100.0 mg/kg/injection, schedule: Q01DX009 (ip), vehicle: saline with Tween-80 102 % of control | dose: 100.0 mg/kg/injection, schedule: Q04DX003 (ip), vehicle: saline with Tween-80 103 % of control | dose: 200.0 mg/kg/injection, schedule: Q01DX009 (ip), vehicle: saline with Tween-80 88 % of control | dose: 200.0 mg/kg/injection, schedule: Q04DX003 (ip), vehicle: saline with Tween-80 97 % of control
